Assay results reported in a melting point compilation (Tetko et al.; mined from patent text by program, amines drawn as free bases though some values may be those of a salt).

Row | Compound | melting point [°C]
1 | Cc1cccc(C)c1NC(=O)c1cc(C)n(C)n1 | 155
2 | CCCCCCC1C(=O)NC2(C(O)C3C=CCCC3)C(=O)OC12C (stereo not drawn) | 157
3 | O/N=C1/c2ccccc2OC12CCCCCC2 | 104 to 106
4 | COc1ccc(C(=O)Oc2ccc(C(=O)O)cc2C(=O)O)cc1C12CC3CC(CC(C3)C1)C2 | 172 to 173
5 | C=C(CC(N)C(=O)OCC)CC(NC=O)(C(=O)OCC)C(=O)OCC (stereo not drawn) | 50
6 | CCOC(=O)c1cnn(-c2ccc(OC)c(C#N)c2)c1N | 195 to 196
7 | CCc1nc2c(C)cc(C)nc2n1Cc1ccc(-c2ccccc2C(=O)NN)cc1 | 139 to 142
8 | COC1=C(Cl)C(=O)NC1=Nc1ccccc1 | 179 to 180
9 | CCOC(=O)c1cc(=O)cc(-c2ccc([N+](=O)[O-])cc2)o1 | 160 to 162
10 | Nc1cccc(-c2ccc(CCN3CCN(c4nc(-c5ccccc5)cs4)CC3)cc2)n1 | 158 to 161
11 | C#CCOC(=O)c1ccc(OCCC2CCN(c3ccc(Cl)nn3)CC2)cc1 | 122
12 | COc1ccc(CC(C#N)C(=O)O)cc1 (stereo not drawn) | 94 to 95
13 | COc1cc(Nc2nccc(-c3ccc([N+](=O)[O-])s3)n2)cc(OC)c1OC | 182 to 183
14 | NC(=O)Cc1ccc2[nH]cc(CCNC(=O)OCc3ccccc3)c2c1 | 124 to 125
15 | N#Cc1ccc2nc(Cl)c3ccccc3c(=O)c2c1 | 217 to 220
16 | Cc1noc(NS(=O)(=O)c2ccccc2-c2ccc(-c3ncco3)cc2COc2ccc(-c3ccccc3)cc2)c1C | 95 to 105
17 | COc1ccccc1C(C)(O)c1ocnc1C (stereo not drawn) | 74 to 75
18 | CCOCc1nc2c(N)nc3cc(-c4cccc(C(=O)N5CCCC5)c4)ccc3c2n1CC(C)(C)O | 216 to 218
19 | CCOCCOC(=O)C1=C(C)NC(CO)=C(C(=O)OCC)C1c1cccc([N+](=O)[O-])c1 (stereo not drawn) | 99 to 100
20 | Cc1c[nH]c2c(Sc3nc4cc(Cl)ccc4[nH]3)ccc(N)c12 | 229 to 230
21 | Cc1cnc(N2CCC(c3ccc(NS(C)(=O)=O)cc3)CC2)n1C | 225 to 226
22 | Clc1nc[nH]c2ncc(I)c1-2 | 195 to 196
23 | Cc1c(O)cccc1C(=O)NC(Cc1ccccc1)C(O)C(=O)N1CSC(C)(C)C1C(=O)NC1CCCc2ccccc21 (stereo not drawn) | 125 to 126
24 | CCOCc1nc2c(N)nc3cc(OCCc4c[nH]c5ccccc45)ccc3c2n1CC(C)(C)O | 220 to 222
25 | Cn1nnc2ccc(C(c3ccc(Cl)cc3)n3ccnc3)cc21 (stereo not drawn) | 87.7
26 | O=C(NCCCCC1CCSS1)N1CCCC1 (stereo not drawn) | 91 to 93

Row | Compound | melting point [°C]
27 | COC(=O)c1cccn1Cc1ccccc1 | 31 to 32
28 | OC1C(CF)OC(n2cnc3c(NN4CCCCC4)nc(Cl)nc32)C1O (stereo not drawn) | 199 to 201
29 | Cc1ccc(-c2cc(NCCN(C)C)c3ccccc3n2)s1 | 103 to 105
30 | COC(=O)CCCc1cc2nc(Cl)ccc2n1S(=O)(=O)c1ccccc1OC | 115
31 | CC(CCC1C(C)CCCC1(C)C)Oc1ccc(C(=O)O)cc1 (stereo not drawn) | 114 to 118
32 | O=C(O)C1=C(C(=O)O)Oc2ccccc2O1 | 215 to 218
33 | Cc1ccc(C2C(=O)CCCC2=O)c(C)c1 | 143 to 145
34 | COc1cc(OC)nc(CN2C(=O)C3(COc4cc5c(cc43)OCCO5)c3ccccc32)n1 (stereo not drawn) | 169 to 170
35 | COc1cccc(Cc2nnc(SC)[nH]c2=O)c1 | 185 to 186
36 | Cc1c(C(=O)O)cccc1S(=O)(=O)CCO | 160 to 165
37 | CCC(=O)NCCCSc1ccncc1 | 50 to 51
38 | CC(C)(C)C(=O)N[C@@H](CS)C(=O)O | 140
39 | CCCCc1nc2c(N)nc(C)c(C)c2n1CCCCNC(=O)Nc1ccccc1 | 196 to 197
40 | CCCCc1oc2ccccc2c1C(=O)Nc1ccc(-c2ccc(O)cc2)cc1 | 181 to 183
41 | O=C(NC(=O)c1c(Cl)cccc1OCc1ccccc1)Nc1ccc(C(F)(F)F)cc1 | 264
42 | OCc1cn2c(n1)CN=C(c1ccccn1)c1cc(Br)ccc1-2 | 176 to 178
43 | OC(CN1CCC(CCOC(c2ccccc2)c2ccccc2)C(O)C1)c1ccc(F)cc1 (stereo not drawn) | 84 to 86
44 | COCc1cnc(N)nc1N | 171 to 174
45 | CCC(NC(=O)Cc1ccccc1)C(=NNC(N)=S)c1ccccc1 (stereo not drawn) | 121 to 124
46 | CC(c1ccccc1N1CCCC1)C(C(N)=O)c1ccc(C(=O)O)cc1 (stereo not drawn) | 155 to 157
47 | c1ccc(-c2nc3n(n2)Cc2ccccc2-3)cc1 | 156 to 158
48 | C#CCC1CCC(=O)C(C(=O)c2ccc(S(C)(=O)=O)cc2[N+](=O)[O-])C1=O (stereo not drawn) | 65 to 70
49 | O=C1CC(=O)C2CCC1C2 | 129 to 130
50 | C=CCN(CC=C)S(=O)(=O)c1ccc([N+](=O)[O-])cc1[N+](=O)[O-] | 105 to 106
51 | O=C(c1ccc([N+](=O)[O-])c(OCc2ccc(-c3ccccc3-c3nnnn3C(c3ccccc3)(c3ccccc3)c3ccccc3)cc2)c1)N1CCOCC1 | 188 to 190
52 | Cc1ccc2c(c1)C(=O)N1CCN=C1N2N1CCCCC1 | 197 to 199

Row | Compound | melting point [°C]
53 | CC(=O)Oc1ccc(N2C(=O)CC(=O)N2c2ccccc2)cc1 | 132 to 134
54 | Cc1cccc(Nc2nnc(Cc3ccncc3)c3ccccc23)c1 | 141 to 143
55 | CC(c1ccccc1)N1Cc2cncn2C(c2cccc(Br)c2)C1=O (single isomer, unassigned; (+)) | 45 to 50
56 | O=C(O)CC1C=CC=CC1=NOC(=O)C(Cl)Cl (stereo not drawn) | 115
57 | CC(C)c1cccc(C(C)C)c1Oc1ccc(C#N)c(C#N)c1 | 114 to 116
58 | CNC(=O)c1ccnc(NC(=O)N2CCC3(CCc4ccc(F)cc4O3)CC2)c1 | 177 to 179
59 | COC(=O)[C@H](Cc1c(Br)[nH]c2cc(Br)c(OC)cc12)NC(C)=O | 174 to 175
60 | O=C(O)C=CC(=O)Nc1ccc(C(=O)O)cc1 | 217 to 219
61 | CC(C)(C)OC(=O)NN(Cc1ccc(-c2cnccn2)cc1)C[C@H](O)[C@@H](N)Cc1ccccc1 | 146 to 148
62 | Cc1ncoc1C(C)(O)c1cccs1 (stereo not drawn) | 84 to 85
63 | Cc1c(Cl)ccc(S(=O)(=O)Cl)c1Cl | 75
64 | CC(C)(C)CN(CC(O)C(Cc1ccccc1)NC(=O)C(CC(N)=O)NC(=O)c1ccc2ccccc2n1)C(=O)NC(C)(C)C (stereo not drawn) | 115 to 117
65 | CCCC(=O)C(=CNc1ccc(CO)cc1)C(=O)OCC | 44 to 46
66 | CCC1CC2(C)C(CCC3C2CCC2(C)C(OC)CCC32)CC1=O (stereo not drawn) | 105 to 107
67 | COC(=O)c1cc(Cl)c(Oc2ccc(OC)c(C(=O)c3ccc(F)cc3)c2)c(Cl)c1 | 112 to 115
68 | COc1ccc(-c2cc(C(=O)O)c(=O)n(Cc3ccc(F)cc3)n2)cc1F | 222 to 224
69 | COc1cc(C(=O)c2ncc3ccccn23)ccc1[N+](=O)[O-] | 183
70 | C=CCONC(CCC)=C1C(=O)C=C(C)OC1=O | 52 to 54
71 | NS(=O)(=O)CCCOc1ccc2ncnn2n1 | 145 to 147
72 | COC(=O)c1ccc(Sc2ccc(O)cc2)cc1 | 184 to 186
73 | CS(=O)(=O)N1CCN([C@@H](CNC(=O)c2ccc(OCc3ccccc3)cc2)C(=O)NO)CC1 | 150
74 | CCCn1c(=O)c2[nH]c(/C=C/c3cc(OC)c(OC)cc3OC)nc2n(CCC)c1=O | 254 to 256
75 | N#Cc1cccc(-n2ncc(C(=O)O)c2C#N)c1 | 190 to 192
76 | N#CC(O)CC12CCC(c3ccccc31)c1ccccc12 (stereo not drawn) | 139 to 141
77 | CC(=O)c1ccc(Oc2ccc(S(C)(=O)=O)cc2)cc1 | 131 to 132
78 | CC12CCC3C(CC=C4CC(F)CCC43C)C1CCC2=O (stereo not drawn) | 155 to 156

Row | Compound | melting point [°C]
79 | O=C(O)c1cc2c(s1)CCc1ccccc1-2 | 205 to 208
80 | CCOC(=O)C(CC(=O)c1ccc(Oc2ccccc2)cc1)SC(=O)c1ccccc1 (stereo not drawn) | 95 to 96
81 | COC(=O)Nc1cc(F)c(Br)cc1I | 101 to 102
82 | CC(C)Cc1ccc2ccc(=O)[nH]c2n1 | 135 to 137
83 | CCCCCCCCCCCCS(=O)(=O)c1c(O)cc(C)oc1=O | 78 to 79
84 | Cn1c(OC2CCOC2)n[nH]c1=O (stereo not drawn) | 164
85 | COc1cc(C(=O)CBr)cc(OC)c1OC(C)=O | 124 to 126
86 | Cc1oc(=O)c(Nc2ccc(I)cc2)nc1Cl | 203 to 205
87 | CC(C)Cn1c(CNC(=O)OC(C)(C)C)c(-c2ccc(Cl)cc2)c2cc(/C=C/C(N)=O)ccc2c1=O | 152 to 154
88 | Cc1cncc2cccc(S(=O)(=O)Cl)c12 | 113 to 118
89 | CCC(C(C)C)C1OC1C(C)C1CCC2C3CCC4=CC(=O)CCC4(C)C3CCC12C (stereo not drawn) | 111 to 112
90 | CC(C)(C)c1cc(-c2nn(CCCC(=O)O)c3ncccc23)cc(C(C)(C)C)c1O | 192 to 194
91 | N[C@@H](CCCCN=Cc1ccccc1)C(=O)O | 79 to 81
92 | O=C(O)CC1(CCCCCCCCCCC2(C(=O)O)CC2)CC1 | 71.9 to 74.3
93 | COC(=O)c1ccccc1Nc1cc(C(C)(C)C)c(O)c(C(C)(C)C)c1 | 155 to 158
94 | CC(C)c1cccc(C(C)C)c1NC(=O)CSCCCCCCCCCCCCN1CCN(c2ccccc2)CC1 | 76.5 to 77.5
95 | CCOC(=O)[C@H](CCSCC)NC(=O)C(CSC(C)=O)Cc1ccccc1 (stereo partly drawn) | 79 to 84
96 | CC1(C)CC(=O)C(C(=O)Nc2cccc(Cl)c2)C(=O)C1 | 89 to 91
97 | COC1C(OC(N)=O)CCC2(CO2)C1C1(C)OC1CC=C(C)C (stereo not drawn) | 125 to 126
98 | CCC(=O)NCc1cccc2c1C(=O)N(C1CCC(=O)NC1=O)C2=O (stereo not drawn) | 219 to 221
99 | COc1ccc2c(c1)CC(NNc1ncnc3c1ncn3C1OC(CO)C(O)C1O)CO2 (stereo not drawn) | 90 to 95
100 | Cc1ccc(-c2cn3cc(-c4cccc(COc5ccc(Cl)cc5)c4)ccc3n2)cc1 | 182 to 184
101 | CS(=O)(=O)Oc1ccc(C(c2ccc(OS(C)(=O)=O)c([N+](=O)[O-])c2)(C(F)(F)F)C(F)(F)F)cc1[N+](=O)[O-] | 119 to 121
102 | CCNC(=O)c1ccc(N2CCN(Cc3cnc4c(c3)[nH]c(=O)n3cccc43)CC2)c(C)c1 | 255 to 258
103 | O=C1CCc2cc(-c3cccs3)ccc21 | 148
